Results taken from patent US7250442B2, “Dihydroindol-2-one derivatives as steroid hormone nuclear receptor modulators” (Eli Lilly and Company, priority 2003, dated 2007).

The compounds below were run against T1, human MR (Homo sapiens, UniProt P08235) (assay: Mineralocorticoid Receptor Binding Assay ([3H]-aldosterone displacement)). Conditions: full length human MR expressed in Sf9 cells, 0.5 nM [3H]-aldosterone.
T1 construct: The full length human MR gene is cloned from a human kidney or human brain cDNA library; made in house; host or cells: Sf9 insect cells (baculovirus, pAcHLT transfer vector)
T1 sequence (P08235 1-984): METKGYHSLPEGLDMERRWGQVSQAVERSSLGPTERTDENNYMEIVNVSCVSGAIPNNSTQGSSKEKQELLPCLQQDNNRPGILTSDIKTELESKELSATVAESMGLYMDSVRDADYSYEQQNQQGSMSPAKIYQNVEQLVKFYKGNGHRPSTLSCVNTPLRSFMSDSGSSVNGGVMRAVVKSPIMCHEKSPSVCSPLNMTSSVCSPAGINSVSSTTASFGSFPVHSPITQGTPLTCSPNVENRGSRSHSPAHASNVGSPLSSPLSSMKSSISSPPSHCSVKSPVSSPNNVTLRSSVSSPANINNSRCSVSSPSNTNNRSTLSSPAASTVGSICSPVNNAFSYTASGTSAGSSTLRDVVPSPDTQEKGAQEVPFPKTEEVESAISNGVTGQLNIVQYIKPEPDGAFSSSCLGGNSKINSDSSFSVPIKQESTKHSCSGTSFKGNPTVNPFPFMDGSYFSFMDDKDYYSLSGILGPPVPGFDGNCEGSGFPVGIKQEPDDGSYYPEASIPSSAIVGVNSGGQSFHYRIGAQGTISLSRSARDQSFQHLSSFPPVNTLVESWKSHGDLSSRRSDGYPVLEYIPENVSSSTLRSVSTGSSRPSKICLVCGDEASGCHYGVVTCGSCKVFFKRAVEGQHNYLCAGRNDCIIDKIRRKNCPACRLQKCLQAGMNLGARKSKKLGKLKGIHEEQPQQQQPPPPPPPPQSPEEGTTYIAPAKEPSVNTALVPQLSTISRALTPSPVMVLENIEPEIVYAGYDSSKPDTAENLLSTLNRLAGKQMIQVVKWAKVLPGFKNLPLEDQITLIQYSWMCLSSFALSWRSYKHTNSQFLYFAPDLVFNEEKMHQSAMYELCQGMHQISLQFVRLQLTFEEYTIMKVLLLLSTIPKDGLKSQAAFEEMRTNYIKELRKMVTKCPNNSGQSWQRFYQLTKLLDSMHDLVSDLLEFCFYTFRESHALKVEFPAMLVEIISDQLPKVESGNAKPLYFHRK
Description: Mineralocorticoid Receptor Binding Assay:
The full length human MR gene is cloned from a human kidney or human brain cDNA library. Briefly, using synthetic oligonucleotide primers (Eli Lilly and Company, Indianapolis) directed to nucleotides 20-54 and 3700-3666 of the human MR, polymerase chain reaction (PCR) is performed under standard conditions using a human cDNA library. The PCR reaction is performed in a final volume of 50 μl containing about 1 μl of a 50× stock solution of polymerase; about 1 μl of a 50× stock solution of dNTP; about 5 μl of an appropriate PCR buffer; about 1 μl of each primer; about 5 μl of a H. kidney or H. brain cDNA library; and about 36 μl of water. The reaction is allowed to denature for about 30 seconds at 95 degrees Celsius, anneal for about 30 seconds at 55 degrees Celsius, and extend for about 5 minutes at 72 degrees Celsius, the sequence being repeated for a total of about 35 cycles. The desired PCR product (3.68 Kb) is confirmed by gel electrophoresis and subsequently cut from the gel and stored at about −20 degrees Celsius until extraction. To extract the cDNA product from the agarose gel, the QIAEX II Gel Extraction protocol (QIAGEN, Inc.) is employed according to the manufacturer's instructions. Following extraction, the MR cDNA is cloned into an appropriate cloning vector (Zero Blunt TOPO PCR Cloning Kit (Invitrogen, Inc.) and a pAcHLT-baculovirus transfer vector (B.D./Pharminogen), then expressed in SF9 insect cells, essentially according to manufacturer's instructions. Sf9 cells are grown at a scale where gram quantity cell pellets are obtained for subsequent use in the MR binding assay. Harvested cell pellets are lysed by repeated freeze-thaw cycles (about 4) in a suitable lysis buffer then centrifuged at about 1×10^3 G (with the supernatant being saved for future assays).
MR binding assays are performed in a final total volume of about 250 μl containing about 20-25 μg of protein and 0.5 nM of [^3H]-aldosterone plus varying concentrations of test compound or vehicle. The assay binding buffer consists of 30 mM sodium molybdate, 30 mM of TRIS-HCl, 5 mM sodium phosphate, 5 mM sodium pyrophosphate, and about 10% glycerol, pH=7.5.
Briefly, assays are prepared at RT in 96-well Falcon 3072 plates, each well containing 210 μl of binding buffer, 10 μl of [^3H]-aldosterone, 10 μl of test compound/vehicle, and 20 μl of the resuspended receptor protein extract. Incubations are carried out at 4 degrees Celsius with shaking for about 16 hours. 200 μl aliquots of each incubation are filtered onto Millipore HA 0.45 micron 96-well filter plates, pre-moistened with cold 30 mM TRIS-HCl. The filter plates are suctioned dry with vacuum and immediately washed 3× with cold 30 mM TRIS-HCl. The plates are then punched out and the amount of receptor-ligand complex is determined by liquid scintillation counting using 4 ml of Ready Protein Plus™ liquid scintillation cocktail.
IC50 values (defined as the concentration of test compound required to decrease [^3H]-aldosterone binding by 50%) are then determined. Ki values for each respective test compound can then be calculated by application of the Cheng-Prusoff equation as described in Cheng et al., Relationship Between The Inhibition Constant (Ki) and The Concentration of Inhibitor Which Causes 50% Inhibition (IC50) of an Enzymatic Reaction, Biochem. Pharmacol., 22: 3099-31088; (1973).

| Ki | SMILES |
| --- | --- |
| ≤ 500 nM | Cc1cc(C2(c3cc(C)c(O)c(C)c3)C(=O)N(Cc3ccc([N+](=O)[O-])o3)c3ccccc32)cc(C)c1O [Example 73, 3,3-Bis-(4-hydroxy-3,5-dimethyl-phenyl)-1-(5-nitro-furan-2-ylmethyl)-1,3-dihydro-indol-2-one] |
| ≤ 500 nM | CCCCCN1C(=O)C(c2cc(C)c(O)c(C)c2)(c2cc(C)c(O)c(C)c2)c2ccccc21 [Example 77, 3,3-Bis-(4-hydroxy-3,5-dimethyl-phenyl)-1-pentyl-1,3-dihydro-indol-2-one] |
| ≤ 500 nM | Cc1cc(C2(c3cc(C)c(O)c(C)c3)C(=O)N(Cc3ccccc3-c3ccccc3)c3ccccc32)cc(C)c1O [Example 54, 1-Biphenyl-2-ylmethyl-3,3-bis-(4-hydroxy-3,5-dimethyl-phenyl)-1,3-dihydro-indol-2-one] |
| ≤ 500 nM | Cc1cc(C2(c3ccc(O)c(C)c3)C(=O)N(Cc3ccccc3)c3ccccc32)ccc1O [Example 12, 1-Benzyl-3,3-bis-(4-hydroxy-3-methyl-phenyl)-1,3-dihydro-indol-2-one] |
| ≤ 500 nM | CCc1nc(CN2C(=O)C(c3cc(C)c(O)c(C)c3)(c3cc(C)c(O)c(C)c3)c3ccccc32)cs1 [Example 90, 1-(2-Ethyl-thiazol-4-ylmethyl)-3,3-bis-(4-hydroxy-3,5-dimethyl-phenyl)-1,3-dihydro-indol-2-one] |
| ≤ 500 nM | CCOCCN1C(=O)C(c2cc(C)c(O)c(C)c2)(c2cc(C)c(O)c(C)c2)c2ccccc21 [Example 80, 1-(2-Ethoxy-ethyl)-3,3-bis-(4-hydroxy-3,5-dimethyl-phenyl)-1,3-dihydro-indol-2-one] |
| ≤ 500 nM | Cc1cc(C2(c3cc(C)c(O)c(C)c3)C(=O)N(Cc3ccccc3Cl)c3ccccc32)cc(C)c1O [Example 11, 1-(2-Chloro-benzyl)-3,3-bis-(4-hydroxy-3,5-dimethyl-phenyl)-1,3-dihydro-indol-2-one] |
| ≤ 500 nM | Cc1cc(C2(c3cc(C)c(O)c(C)c3)C(=O)N(Cc3ccc([N+](=O)[O-])cc3)c3ccccc32)cc(C)c1O [Example 62, 3,3-Bis-(4-hydroxy-3,5-dimethyl-phenyl)-1-(4-nitro-benzyl)-1,3-dihydro-indol-2-one] |
| ≤ 500 nM | Cc1cc(C2(c3cc(C)c(O)c(C)c3)C(=O)N(Cc3ccccc3OC(F)F)c3ccccc32)cc(C)c1O [Example 79, 1-(2-Difluoromethoxy-benzyl)-3,3-bis-(4-hydroxy-3,5-dimethyl-phenyl)-1,3-dihydro-indol-2-one] |
| ≤ 500 nM | CCCN1C(=O)C(c2cc(C)c(O)c(C)c2)(c2cc(C)c(O)c(C)c2)c2ccccc21 [Example 5, 3,3-Bis-(4-hydroxy-3,5-dimethyl-phenyl)-1-propyl-1,3-dihydro-indol-2-one] |
| ≤ 500 nM | Cc1cc(C2(c3cc(C)c(O)c(C)c3)C(=O)N(Cc3cccc(F)c3F)c3ccccc32)cc(C)c1O [Example 66, 1-(2,3-Difluoro-benzyl)-3,3-bis-(4-hydroxy-3,5-dimethyl-phenyl)-1,3-dihydro-indol-2-one] |
| ≤ 500 nM | COc1nccc(N2C(=O)C(c3cc(C)c(O)c(C)c3)(c3cc(C)c(O)c(C)c3)c3ccccc32)n1 [Example 143, 3,3-Bis-(4-hydroxy-3,5-dimethyl-phenyl)-1-(2-methoxy-pyrimidin-4-yl)-1,3-dihydro-indol-2-one] |
| ≤ 500 nM | COc1ccc(-c2noc(CN3C(=O)C(c4cc(C)c(O)c(C)c4)(c4cc(C)c(O)c(C)c4)c4ccccc43)n2)cc1 [Example 142, 3,3-Bis-(4-hydroxy-3,5-dimethyl-phenyl)-1-[3-(4-methoxy-phenyl)-[1,2,4]oxadiazol-5-ylmethyl]-1,3-dihydro-indol-2-one] |
| ≤ 500 nM | Cc1cc(C2(c3cc(C)c(O)c(C)c3)C(=O)N(c3ccc(C(F)(F)F)cc3)c3ccccc32)cc(C)c1O [Example 131, 3,3-Bis-(4-hydroxy-3,5-dimethyl-phenyl)-1-(4-trifluoromethyl-phenyl)-1,3-dihydro-indol-2-one] |
| ≤ 500 nM | COc1ccc(-c2nc(CN3C(=O)C(c4cc(C)c(O)c(C)c4)(c4cc(C)c(O)c(C)c4)c4ccccc43)cs2)cc1 [Example 94, 3,3-Bis-(4-hydroxy-3,5-dimethyl-phenyl)-1-[2-(4-methoxy-phenyl)-thiazol-4-ylmethyl]-1,3-dihydro-indol-2-one] |
| ≤ 500 nM | Cc1cc(C2(c3cc(C)c(O)c(C)c3)C(=O)N(Cc3ccccc3C(F)(F)F)c3ccccc32)cc(C)c1O [Example 53, 3,3-Bis-(4-hydroxy-3,5-dimethyl-phenyl)-1-(2-trifluoromethyl-benzyl)-1,3-dihydro-indol-2-one] |
| ≤ 500 nM | Cc1cc(C2(c3cc(C)c(O)c(C)c3)C(=O)N(c3cccc(F)c3)c3ccccc32)cc(C)c1O [Example 130, 1-(3-Fluoro-phenyl)-3,3-bis-(4-hydroxy-3,5-dimethyl-phenyl)-1,3-dihydro-indol-2-one] |
| ≤ 500 nM | Cc1ccc2c(c1)C(c1cc(C)c(O)c(C)c1)(c1cc(C)c(O)c(C)c1)C(=O)N2Cc1ccccc1Cl [Example 22, 1-(2-Chloro-benzyl)-3,3-bis-(4-hydroxy-3,5-dimethyl-phenyl)-5-methyl-1,3-dihydro-indol-2-one] |
| ≤ 500 nM | CCOc1cccc(N2C(=O)C(c3cc(C)c(O)c(C)c3)(c3cc(C)c(O)c(C)c3)c3ccccc32)c1 [Example 137, 1-(3-Ethoxy-phenyl)-3,3-bis-(4-hydroxy-3,5-dimethyl-phenyl)-1,3-dihydro-indol-2-one] |
| ≤ 500 nM | Cc1cc(C2(c3cc(C)c(O)c(C)c3)C(=O)N(CC#N)c3ccccc32)cc(C)c1O [Example 78, [3,3-Bis-(4-hydroxy-3,5-dimethyl-phenyl)-2-oxo-2,3-dihydro-indol-1-yl]-acetonitrile] |
| ≤ 500 nM | Cc1cc(C2(c3cc(C)c(O)c(C)c3)C(=O)N(Cc3ccccc3Cl)c3ccc(Br)cc32)cc(C)c1O [Example 19, 5-Bromo-1-(2-chloro-benzyl)-3,3-bis-(4-hydroxy-3,5-dimethyl-phenyl)-1,3-dihydro-indol-2-one] |
| ≤ 500 nM | Cc1cc(C2(c3cc(C)c(O)c(C)c3)C(=O)N(c3cccc(C(F)(F)F)c3)c3ccccc32)cc(C)c1O [Example 127, 3,3-Bis-(4-hydroxy-3,5-dimethyl-phenyl)-1-(3-trifluoromethyl-phenyl)-1,3-dihydro-indol-2-one] |
| ≤ 500 nM | Cc1ccccc1N1C(=O)C(c2cc(C)c(O)c(C)c2)(c2cc(C)c(O)c(C)c2)c2ccccc21 [Example 132, 3,3-Bis-(4-hydroxy-3,5-dimethyl-phenyl)-1-o-tolyl-1,3-dihydro-indo 1-2-one] |
